The OPERA property sets (Mansouri et al. 2018)
In brackets after ≈: the same amount, converted by molar mass.

details: not given

CCOC(=O)C(=Cc1ccc([N+](=O)[O-])cc1)NC=O and CCOC(=O)C(=Cc1cccc([N+](=O)[O-])c1)NC=O are the same in logP: 2.05 for the first, 2.05 for the second.

First: CCOC(=O)C(=Cc1ccc(Cl)cc1)NC=O
Second: CCOC(=O)C(=Cc1ccc(OC)cc1)NC=O
The logP of the first is higher: 2.65 for the first, 2.22 for the second.

First: CCOC(=O)C(=Cc1ccc(OC)c(OC)c1)NC=O
Second: CCOC(=O)C(=Cc1cccc(Cl)c1)NC=O
The logP of the first is lower: 1.97 for the first, 2.51 for the second.

CCOC(=O)C(=Cc1ccccc1)NC=O and CCOC(=O)C(=Cc1ccccc1Cl)NC=O are within 0.2 log units of each other in logP: 2.48 for the first, 2.41 for the second.

First: CCOC(=O)C(=Cc1ccoc1)NC=O
Second: CCOC(=O)C(=Cc1ccc2c(c1)OCO2)NC=O
The logP of the first is higher: 2.08 for the first, 1.66 for the second.

same assay, conditions: 25 °C

In the case of CCOC(=O)C(=Cc1ccoc1)NC=O, the solubility is reported as 1790 µM (≈ 374 µg/mL).
